The subject of the assay is P. falciparum 3D7 growth, pLDH absorbance. As to the kind of experiment: P. falciparum 3D7 growth inhibition, dose response, strain 3D7 (AID 2305).

Values joined by “and” are separate entries in the source; they are usually repeats but may differ in a detail not shown here. Identical values can stand only once.

`Cc1cc(NC(=O)Nc2ccc3sccc3c2)c2ccccc2n1`: the IC50 was 530 nM. This counts as sub-micromolar. `COc1ccc(C(=O)[C@H]2C[C@@H]2CN2CC=C(c3c(C)[nH]c4ccccc34)CC2)cc1` yielded an IC50 of 300 nM. The figure for `CC(C)c1cc(Oc2c(I)cc(CCCc3ncc[nH]3)cc2I)ccc1O` is 1120 nM; for `O=C(/C=C/c1ccc(Cl)c(Cl)c1)NCCCCCN1CCCN(C(=O)Nc2cc(Cl)nc(Cl)c2)CC1` it is 790 nM; for `CC(C)CN(c1nc(C(=O)NNC(=O)[C@H](CC2CC2)NC(=O)c2cc3cc(OCCN(C)C)ccc3o2)cs1)C1CC1` it is 1030 nM.

The compound `CC(C)COc1ccc(Cl)cc1Cc1nc(-c2nc3ccc(CN(C)C)cc3[nH]2)co1` registered a 50% inhibitory concentration (IC50) of 710 nM. Under `Cc1cccc2[nH]c(-c3cccc(-c4ccc(NC(=O)c5cnccc5C(F)(F)F)cc4)c3)nc12` stands 700 nM; under `CN(c1ccc2c(c1)nc(NCc1ccccc1)n2C)c1ccnc(Nc2ccc(CS(C)(=O)=O)cc2)n1`, 840 nM. The compound `CCCCCCN(CCCCCC)CCCCNc1c2ccc(Cl)cc2nc2ccc(OC)cc12` returned an IC50 of 540 nM. Under `COc1ccc(CCc2ccc(-c3c(C)[nH]c(C)c(Cl)c3=O)cc2)cc1` stands 20 nM; under `O=S(=O)(Nc1cccc(CCN2CCC(N3CCCCC3)CC2)c1)c1ccc(-c2ccccc2)cc1`, 1120 nM; under `CCCN(CCC)C(=O)c1cc(-c2cccc(C)c2)nc2ccccc12`, 1060 nM. The figure for `CC(=O)Oc1c(C(=O)C2CCC(C(C)(C)C)CC2)c(OC(C)=O)c2ccccc2c1OC(C)=O` (configuration not stated) is 270 nM; for `NC(N)=Nc1nc(-c2ccc(N=C(N)N3CCC[C@H]3CN3CCCC3)cc2)cs1` it is 1110 nM; for `NC1CCN(Cc2cccc(-c3csc(-c4nc5ccccc5[nH]4)c3)c2)C1` (configuration not stated) it is 890 nM. In turn, `O=C(Nc1ccc(Cl)cc1)c1cccc(S(=O)(=O)NC2CCN(CC3CCCCC3)C2)c1` (configuration not stated) had an IC50 of 910 nM.

Turning to `Cc1[nH]c(/C=C2\C(=O)Nc3ccc(S(=O)(=O)Cc4c(Cl)cccc4Cl)cc32)c(C)c1C(=O)N1CCC[C@@H]1CN1CCCC1`, the IC50 came to 720 nM. This IC50 and that of the compound before are within 1.5-fold of each other. The figure for `CCCCCSc1cc(O)c(C(CNC)C(C)C)cc1OC` (configuration not stated) is 160 nM; for `CC(Cc1ccc(OCCN2CCN(c3cccc(C(F)(F)F)c3)CC2)cc1)NCC(O)c1cccc(C(F)(F)F)c1` (configuration not stated) it is 180 nM; for `CO/C(=C\C=C\c1cc2cc(Cl)c(Cl)cc2[nH]1)C(=O)NC1C[C@@H](C)N(C)[C@@H](C)C1` (some centres not stated) it is 900 nM. As for `O=c1[nH]c(NCCCNCc2cc3c(Cl)cc(Cl)cc3[nH]2)nc2ccsc12`, the IC50 was 1120 nM. Under `Cc1cc(F)ccc1Nc1nc(N(C)c2ccccc2)c2cccc(OCCO)c2n1` stands 800 nM; under `CCc1ccc(NC(=O)N(CCCn2ccnc2)Cc2csc(-c3ccc(CNCc4ccccc4)cc3)n2)cc1`, 760 nM; under `COc1cc2c(cc1OC)CC(NCc1ccc(-c3ccc4nc[nH]c4c3)cc1)C2`, 850 nM.

Consider `Clc1ncccc1-c1nc(NCCC(c2ccccc2)c2ccccc2)no1`, for which the IC50 stood at 1000 nM. The IC50 values of the last two compounds are within 1.5-fold of each other. For `CCN1CCC(N(Cc2ccc(-c3ccc(C(F)(F)F)cc3)cc2)C(=O)CCCCn2c(CCc3cccc(F)c3F)nc(=O)c3ccccc32)CC1`, the IC50 came out at 990 nM. Regarding `COc1ccc(OC)c(NC(=O)c2c(-c3c(F)cccc3Cl)noc2C)c1`, the IC50 stood at 700 nM. With `COc1cc(/C=C/C(=O)NCC(CCNc2cc(=O)c3ccccc3[nH]2)NCc2cc(Br)cc(Br)c2)cc(OC)c1` (configuration not stated), the IC50 was 910 nM.

In turn, `Cc1nc(NCCc2cnc[nH]2)cc(NCc2ccccc2)n1` yielded a concentration for half-maximal inhibition (IC50) of 830 nM. `CCOc1cc(C(=O)NC2CC(C)(C)NC(C)(C)C2)ccc1-c1nc2ccc(Cl)cc2[nH]1` displayed an IC50 of 990 nM. Under `N#Cc1c(N2CCCCCC2)nc(N)c2c(N)nc3c(c12)CC(=O)N3c1ccc(F)cc1` stands 210 nM; under `CN1CCN(CC(=O)Nc2cccc(-c3cccc(-c4nc5ccccc5[nH]4)c3)c2)CC1`, 1290 nM.

The compound `N#Cc1ccc(-n2cc(C(=O)Nc3ccc4c(c3)CCN(C3CCC3)CC4)c(C(F)(F)F)n2)cc1` yielded an IC50 of 290 nM.

The compound `CCCCCn1c(Sc2ccc(C#N)c([N+](=O)[O-])c2)nnc1-c1cc(OC)cc(OC)c1` gave an IC50 of 960 nM. This IC50 lies about 3.3-fold higher than the previous one. The figure for `CN1CCN(CC(O)CNC(=O)Nc2ccc(Br)cc2)CC1` (configuration not stated) is 150 nM; for `CCNc1cc(C(=O)N[C@@H](Cc2ccccc2)[C@H](O)CN[C@H](C)c2ccccc2)cc(N2CCCC2=O)c1` it is 50 nM; for `Cc1cccc2[nH]c(-c3cccc(-c4cccc(NC(=O)NCc5ccccc5)c4)c3)nc12` it is 520 nM. Under `Oc1ccc2[nH]c(-c3cccc(F)c3)nc2c1CN1CCC(O)(c2ccccc2)CC1` stands 990 nM. Under `CN(C)CCOc1ccc2c(c1)OC(C)(C)C=C2c1cccc2ccccc12` stands 780 nM. For `COc1cccc(CCc2cccc(CNC(C)=O)c2)c1`, the IC50 was found to be 1040 nM.

`O=C(Nc1nc(-c2ccccn2)cc2ccccc12)c1cccc(Cl)c1` had an IC50 of 750 nM.

For `O=C(Nc1ccc(Cl)cc1)Nc1cccc(-c2cccc(-c3nc4ccc(F)cc4[nH]3)c2)c1`, the IC50 came out at 220 nM.

`COc1ccc2nccc(N3CCN(CCNCc4ccc5c(n4)NC(=O)CS5)CC3)c2n1`: the IC50 was determined as 840 nM. Against the preceding compound, the IC50 is about 3.8-fold higher. The figure for `CCc1ccccc1NC(=O)CN1CCN(c2ncnc3scc(-c4ccc(F)cc4)c23)CC1` is 700 nM. For the compound `COc1cc2c(cc1NC(=O)CN1CCN(C(=O)c3ccco3)CC1)oc1ccccc12`, the IC50 was 420 nM.

As for `O=C(Nc1ccc(-c2ccc(-c3nc4ccc(C(F)(F)F)cc4[nH]3)cc2)cc1)Nc1ccc(F)c(F)c1F`, the IC50 turned out to be 220 nM.

For the compound `Oc1ccccc1CCNCC1CCc2ccccc2C1` (configuration not stated), the IC50 came to 690 nM.

`CCOC(=O)N1CCN(CCCNc2c3ccccc3nc3ccccc23)CC1`: the IC50 stood at 1010 nM. This IC50 and that of the compound before are within 1.5-fold of each other. Under `Cc1ccc(C(=O)N2CCc3cc4nccc(N5CCN6CCC[C@H]6C5)c4cc32)cc1` stands 1100 nM. Compound `COc1ccc(-c2nc3c(NCc4ccccc4)nccc3[nH]2)c(OC)c1` gave an IC50 of 780 nM.

Consider `Cc1ccc(CCOCCCCCNCC(O)c2cc(Cl)c(N)c(Cl)c2)cc1` (configuration not stated), for which the IC50 was 950 nM. Compound `Clc1cc(Cl)c2c(c1)C(NCCCNc1nc3ccccc3[nH]1)CCO2` (configuration not stated) registered an IC50 of 330 nM.

The compound `Cc1ccccc1Nc1nc(NCCCO)c2ccccc2n1` yielded an IC50 of 410 nM. The figure for `O=C(NCc1ccccc1)NC1CCN(c2ccnc3cc(Cl)ccc23)C1` (configuration not stated) is 160 nM; for `O=C(Nc1ccc(OC(F)(F)F)cc1)NC1CCN(c2ccnc3ccccc23)C1` (configuration not stated) it is 240 nM; for `COc1cccc(-c2ccc(C(=O)NC3CCN(Cc4ccc(C(C)(C)C)cc4)CC3)s2)c1` it is 1600 nM. Under `COC(=O)c1ccc(CCC(C)NCC(O)c2cccc(C(F)(F)F)c2)cc1` (configuration not stated) stands 410 nM; under `Fc1cccc(COc2ccc(Nc3ncnc4sc(C#CC5CCCCN5)cc34)cc2Cl)c1` (configuration not stated), 540 nM; under `C=C[C@H]1CN2CC[C@@H]1C[C@H]2[C@H](O)c1cc(-c2ccc(F)cc2)nc2ccc(OC)cc12`, 170 nM. `COc1cc(C2C(Oc3ccccc3)C(=O)N2Cc2ccc(F)cc2)cc(OC)c1OC` (configuration not stated) displayed an IC50 of 960 nM. Under `Cc1ccc(O)cc1Nc1ccnc2cc(-c3ccncc3)ccc12` stands 720 nM; under `CCOC(=O)c1cnc2c(OC)cc(OC)c(Cl)c2c1Nc1cccc(C)c1`, 840 nM.

The compound `S=c1nc(-c2ccccc2)n2ccsc2n1` registered an IC50 of 180 nM.

The compound `N#CC(c1ccc(Cl)cc1)c1ccc2c(C(F)(F)F)cc(C(F)(F)F)nc2n1` (configuration not stated) registered an IC50 of 1010 nM. The figure for `Nc1oc2c(CN3CCCCCC3)c(O)ccc2c(=O)c1-c1nc2ccccc2s1` is 520 nM; for `C/C=C1\CN2CC[C@H]1C[C@H]2[C@H](O)c1ccnc2ccc(OC)cc12` it is 220 nM and 320 nM; for `Cc1cc(NN=Cc2cccc([N+](=O)[O-])c2)c2ccc(F)cc2n1` it is 690 nM. `CN1CC[C@@H](Oc2cc(NC(=O)Nc3ccc(Cl)c(C(F)(F)F)c3)ccc2Cl)C1` returned an IC50 of 990 nM.

Regarding `CN1CCN(c2ccc(-c3cc(-c4cc(F)c(F)c(F)c4)cnc3N)cc2)CC1`, the IC50 came to 1010 nM.

In the case of `O=C(/C=C/c1ccc(Cl)c(Cl)c1)NCCCN1CCC(c2c[nH]c3ccccc23)CC1`, the IC50 stood at 970 nM. Under `CN1CCN(c2ccc3nccc(CCN4CCC(NCc5ccc6c(n5)NC(=O)CO6)CC4)c3n2)CC1` stands 820 nM.

Take `CC(CN1CCN(C)CC1)C(=O)Nc1cccc(-c2ccc(-c3nc4ccccc4[nH]3)s2)c1` (configuration not stated): the IC50 came out at 630 nM. This IC50 and that of the compound before are within 1.5-fold of each other. The figure for `COc1ccc(NC(=O)NC2CCN(c3ccnc4ccccc34)C2)cc1` (configuration not stated) is 870 nM.

Compound `C[C@H](Cc1ccc(OCCCCCCOc2ccc(C[C@@H](C)NC(=O)[C@H](O)c3cccc(Cl)c3)cc2)cc1)NC[C@H](O)c1cccc(Cl)c1` showed an IC50 of 380 nM. The figure for `Cc1ccccc1OCC(O)CN1CCC(C2CCN(CC(O)COc3ccccc3C)CC2)CC1` (configuration not stated) is 310 nM. Under `CCc1ccc(CN2CCC(NC(=O)c3ccc(-c4ccc(N(C)C)cc4)s3)CC2)cc1` stands 1210 nM. The figure for `CCC(C)OC(=O)C1=C(C)NC2=C(C(=O)CC(c3ccc(OC)c(OC)c3)C2)C1c1ccc(O)cc1` (configuration not stated) is 220 nM. Compound `Cc1ccc(C=C2SC(=Nc3ccccc3)NC2=O)c(C)c1` returned an IC50 of 560 nM. The figure for `CC1Cc2ccccc2N1S(=O)(=O)c1cccc(C(=O)Nc2nc(-c3ccccn3)cs2)c1` (configuration not stated) is 1320 nM; for `c1cc(-c2cc3ccc(C4=NCCN4)cc3[nH]2)ccc1C1=NCCN1` it is 220 nM; for `C[C@H](Cc1ccc(OCCCOc2ccc(C[C@@H](C)NC[C@H](O)c3cccc(Cl)c3)cc2)cc1)NC[C@H](O)c1cccc(Cl)c1` it is 780 nM.

`COc1cc2nc(-c3ccc(Br)cc3)cc(N)c2cc1OC` displayed an IC50 of 170 nM. This IC50 is about 4.6-fold lower than that of the compound before. Under `CC1=C(C(=O)Nc2cc3cn[nH]c3cc2F)C(c2ccc(Cl)c(NS(C)(=O)=O)c2)CC(=O)N1` (configuration not stated) stands 480 nM.

With `N#Cc1ccc(-c2ccc(C(=O)NCCCCN3CCC(c4cn(CCCO)c5ccccc45)CC3)cc2)cc1`, the IC50 stood at 750 nM. The figure for `N#Cc1cccc(NC(=O)c2ccc(S(=O)(=O)NCC3CCCN3CC3CCCCC3)cc2)c1` (configuration not stated) is 1050 nM. The figure for `Cc1cccc2[nH]c(-c3ccc(-c4ccc(NC(=O)Nc5ccc(Cl)c(Cl)c5)cc4)s3)nc12` is 180 nM. With `CCc1ccc(NC(=O)c2ccc(CN3CCCN(CCC(C)C)CC3)cc2)cc1`, the IC50 amounted to 630 nM.

Usually IC50 stands for the concentration that gives 50% inhibition. A lower IC50 goes with higher potency.
